Data as given in ChEMBL document CHEMBL1150939, “Symplostatin 1: A dolastatin 10 analogue from the marine cyanobacterium Symploca hydnoides” (J Nat Prod, 1998).
≈ marks a conversion by molar mass, not a printed value.

Experiments:
[1] = system: KB; experiment: Cytotoxicity against human KB cells; assay type: functional, cell-based
[2] = system: A10; experiment: Induction of microtubule loss in rat A10 cells at 1 ng/mL; assay type: functional

Structure (SMILES) | IC50 [1] | Activity [2]
CC[C@H](C)[C@@H]([C@@H](CC(=O)N1CCC[C@H]1[C@H](OC)[C@@H](C)C(=O)N[C@@H](Cc1ccccc1)c1nccs1)OC)N(C)C(=O)[C@@H](NC(=O)[C@H](C(C)C)N(C)C)C(C)C [DOLASTATIN-10] | < 0.1 ng/mL | –
CC[C@H](C)[C@@H]([C@@H](CC(=O)N1CCC[C@H]1[C@H](OC)[C@@H](C)C(=O)N[C@@H](Cc1ccccc1)c1nccs1)OC)N(C)C(=O)[C@@H](NC(=O)[C@H]([C@@H](C)CC)N(C)C)C(C)C [SYMPLOSTATIN 1] | 0.3 ng/mL (≈ 0.375 nM) | 80%
